Measured values: US11542254B2, “Methods and composition of 4-substituted benzoylpiperazine-1-substituted carbonyls as beta-catenin/B-cell lymphoma 9 inhibitors” (University of Utah Research Foundation, priority 2016, dated 2023)
Structures can show the parent of a compound that is named as a salt.

biological target: β-catenin/BCL9 PPI (Homo sapiens (Human), UniProt P35222); assay: AlphaScreen competitive inhibition assay, wild-type β-catenin/BCL9 PPI; assay type: binding; details: 500 μM, AlphaScreen
Sequence (P35222 138-686): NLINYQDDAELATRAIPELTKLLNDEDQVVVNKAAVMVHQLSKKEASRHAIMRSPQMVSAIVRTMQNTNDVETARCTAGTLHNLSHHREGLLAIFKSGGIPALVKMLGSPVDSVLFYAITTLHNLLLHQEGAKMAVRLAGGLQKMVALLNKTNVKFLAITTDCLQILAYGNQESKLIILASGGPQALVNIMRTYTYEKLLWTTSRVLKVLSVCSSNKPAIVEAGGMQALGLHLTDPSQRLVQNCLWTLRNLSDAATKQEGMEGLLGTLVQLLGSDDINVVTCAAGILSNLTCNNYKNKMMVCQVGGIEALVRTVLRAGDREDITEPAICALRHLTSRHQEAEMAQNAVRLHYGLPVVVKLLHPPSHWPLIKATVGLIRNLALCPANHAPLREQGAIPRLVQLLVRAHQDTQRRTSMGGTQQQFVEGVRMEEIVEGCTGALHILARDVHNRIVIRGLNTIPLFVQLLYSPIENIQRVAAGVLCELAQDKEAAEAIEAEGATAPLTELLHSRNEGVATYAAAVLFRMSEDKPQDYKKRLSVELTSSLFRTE
Procedure: Cells were cultured in LB medium with 30 μg/mL kanamycin until the OD600 was approximately 0.8, and then protein expression was induced with 400 μM of IPTG at 20° C. overnight. Cells were lysed by sonication. […] Native non-denaturing gel electrophoresis was performed to confirm the homogeneity of the purified proteins. Thermal-shift assay was performed on an iCycler iQ Real Time Detection System (Bio-Rad) to monitor protein stability and detect protein aggregation. Protein unfolding was evaluated through measuring the fluorescence changes of fluorescent dye Sypro Orange when interacting with wild-type or mutant β-catenin proteins. A temperature increment of 1°/min was applied. […] All spectra were recorded at room temperature, and the baseline control containing all of the substances except protein. Sample were prepared at a concentration around 1-5 μM in a buffer of 10 mM potassium phosphate and 100 mM potassium fluoride at pH 7.0 to ensure that the transmission of light through the sample was not restricted. […] Proteins were aliquoted and stored at −80° C.
25. Alphascreen Competitive Inhibition Assays Using Wild-Type and Mutant β-Catenin Proteins

Structure (SMILES) | inhibition of β-catenin/BCL9 PPI at the highest concentration tested
Cl.Cl.NCCc1cc(F)cc(C(=O)N2CCN(C(=O)c3cnc(O[C@H]4CCNC4)c(-c4ccc(F)cc4)c3)CC2)c1 [Compound 4, (S)-(4-(3-(2-Aminoethyl)-5-fluorobenzoyl)piperazin-1-yl)(5-(4-fluorophenyl)-6-(pyrrolidin-3-yloxy)pyridin-3-yl)methanone hydrochloride] | no obvious inhibition

same assay, conditions: wild-type β-catenin/BCL9 PPI, AlphaScreen competitive inhibition, mean ± SD (n=3)

Structure (SMILES) | Ki [µM]
O=C(c1cc(F)cc(N2CCNCC2)c1)N1CCN(C(=O)c2ccc(O[C@H]3CCNC3)c(C3CCC(C(F)(F)F)CC3)c2)CC1 (stereo partly drawn) [Compound 13, (S)-(4-(3-Fluoro-5-(piperazin-1-yl)benzoyl)piperazin-1-yl)(4-(pyrrolidin-3-yloxy)-3-(4-(trifluoromethyl)cyclohexyl)phenyl)methanone hydrochloride] | 170 ± 7.5
CC(C)C[C@H]1CN(C(=O)c2cc(F)cc(N3CCNCC3)c2)CCN1C(=O)c1ccc(O[C@H]2CCNC2)c(-c2ccc(F)cc2)c1 [Compound 68, 4-(3-Fluoro-5-((5)-4-(4′-fluoro-6-(((S)-pyrrolidin-1-ium-3-yl)oxy)-[1,1′-biphenyl]-3-carbonyl)-3-isobutylpiperazine-1-carbonyl)phenyl)piperazin-1-ium chloride] | 22
O=C(c1cc(F)cc(O[C@H]2CCNC2)c1)N1CCN(C(=O)c2ccc(O[C@H]3CCNC3)c(-c3ccc(F)cc3)c2)CC1 [Compound 6, (4-(3-Fluoro-5-(((S)-pyrrolidin-3-yl)oxy)benzoyl)piperazin-1-yl) (4′-fluoro-6-(((S)-pyrrolidin-3-yl)oxy)-[1,1′-biphenyl]-3-yl) methanone hydrochloride] | 48 ± 11
CC(C)[C@H]1CN(C(=O)c2cc(F)cc(N3CCNCC3)c2)CCN1C(=O)c1ccc(O[C@H]2CCNC2)c(-c2ccc(F)cc2)c1 [Compound 64, 4-(3-Fluoro-5-((5)-4-(4′-fluoro-6-(((S)-pyrrolidin-1-ium-3-yl)oxy)-[1,1′-biphenyl]-3-carbonyl)-3-isopropylpiperazine-1-carbonyl)phenyl)piperazin-1-ium chloride] | 45
C[C@H]1CN(C(=O)c2cc(F)cc(N3CCNCC3)c2)CCN1C(=O)c1ccc(O[C@H]2CCNC2)c(-c2ccc(F)cc2)c1 [Compound 62, 4-(3-Fluoro-5-((S)-4-(4′-fluoro-6-(((S)-pyrrolidin-1-ium-3-yl)oxy)-[1,1′-biphenyl]-3-carbonyl)-3-methylpiperazine-1-carbonyl)phenyl)piperazin-1-ium chloride] | 110 ± 50
O=C(c1cc(F)cc(N2CCNCC2)c1)N1CCN(C(=O)c2ccc(O[C@H]3CCNC3)c(C3CCCC3)c2)CC1 [Compound 11, (S)-(4-(3-Cyclopentyl-4-(pyrrolidin-3-yloxy)benzoyl)piperazin-1-yl)(3-fluoro-5-(piperazin-1-yl)phenyl)methanone hydrochloride] | 37 ± 8
O=C(c1cc(F)cc(C2CCNCC2)c1)N1CCN(C(=O)c2ccc(O[C@H]3CCNC3)c(-c3ccc(F)cc3)c2)CC1 [Compound 8, (S)-(4-(3-Fluoro-5-(piperidin-4-yl)benzoyl)piperazin-1-yl)(4′-fluoro-6-(pyrrolidin-3-yloxy)-[1,1′-biphenyl]-3-yl)methanone hydrochloride] | 20 ± 2.3
O=C(c1cc(F)cc(N2CCNCC2)c1)N1CCN(C(=O)c2ccc(O[C@H]3CCNC3)c(C3CCC(F)(F)CC3)c2)CC1 [Compound 16, (S)-(4-(3-(4,4-Difluorocyclohexyl)-4-(pyrrolidin-3-yloxy)benzoyl)piperazin-1-yl)(3-fluoro-5-(piperazin-1-yl)phenyl)methanone hydrochloride] | 53 ± 22
Cl.Cl.O=C(c1cc(F)cc(N2CCNCC2)c1)N1CCN(C(=O)c2cnc(O[C@H]3CCNC3)c(-c3ccc(F)cc3)c2)CC1 [Compound 3, (S)-(4-(3-Fluoro-5-(piperazin-1-yl)benzoyl)piperazin-1-yl)(5-(4-fluorophenyl)-6-(pyrrolidin-3-yloxy)pyridin-3-yl)methanone hydrochloride] | 82 ± 12
CC1(C)CCC(c2cc(C(=O)N3CCN(C(=O)c4cc(F)cc(N5CCNCC5)c4)CC3)ccc2O[C@H]2CCNC2)CC1 [Compound 15, (S)-(4-(3-(4,4-Dimethylcyclohexyl)-4-(pyrrolidin-3-yloxy)benzoyl)piperazin-1-yl) (3-fluoro-5-(piperazin-1-yl)phenyl) methanone hydrochloride] | 45 ± 6.7
Cc1cc(C(=O)N2CCN(C(=O)c3ccc(O[C@H]4CCNC4)c(C4CCCCC4)c3)CC2)cc(N2CCNCC2)c1 [Compound 19, (S)-(4-(3-Cyclohexyl-4-(pyrrolidin-3-yloxy)benzoyl)piperazin-1-yl) (3-methyl-5-(piperazin-1-yl)phenyl)methanone hydrochloride] | 25 ± 1.7
O=C(c1cc(F)cc(N2CCNCC2=O)c1)N1CCN(C(=O)c2ccc(O[C@H]3CCNC3)c(C3CCCCC3)c2)CC1 [Compound 75, (S)-1-(3-(4-(3-Cyclohexyl-4-(pyrrolidin-3-yloxy)benzoyl)piperazine-1-carbonyl)-5-fluorophenyl)piperazin-2-one hydrochloride] | 39 ± 7
O=C(c1cc(Cl)cc(N2CCNCC2)c1)N1CCN(C(=O)c2ccc(O[C@H]3CCNC3)c(C3CCCCC3)c2)CC1 [Compound 18, (S)-(4-(3-Chloro-5-(piperazin-l-yl)benzoyl)piperazin-1-yl)(3-cyclohexyl-4-(pyrrolidin-3-yloxy)phenyl)methanone hydrochloride] | 76 ± 9.9
O=C(c1cc(Br)cc(N2CCNCC2)c1)N1CCN(C(=O)c2ccc(O[C@H]3CCNC3)c(C3CCCCC3)c2)CC1 [Compound 21, (S)-(4-(3-Bromo-5-(piperazin-1-yl)benzoyl)piperazin-1-yl)(3-cyclohexyl-4-(pyrrolidin-3-yloxy)phenyl)methanone hydrochloride] | 55 ± 2.7
CC[C@H]1CN(C(=O)c2cc(F)cc(N3CCNCC3)c2)CCN1C(=O)c1ccc(O[C@H]2CCNC2)c(-c2ccc(F)cc2)c1 [Compound 63, 4-(3-((S)-3-Ethyl-4-(4′-fluoro-6-(((S)-pyrrolidin-1-ium-3-yl)oxy)-[1,1′-biphenyl]-3-carbonyl)piperazine-1-carbonyl)-5-fluorophenyl)piperazin-1-ium chloride] | 10 ± 10
O=C(c1cc(F)cc(O[C@@H]2CCNC2)c1)N1CCN(C(=O)c2ccc(O[C@H]3CCNC3)c(-c3ccc(F)cc3)c2)CC1 [Compound 7, (4-(3-Fluoro-5-(((R)-pyrrolidin-3-yl)oxy)benzoyl)piperazin-1-yl) (4′-fluoro-6-(((S)-pyrrolidin-3-yl)oxy)-[1,1′-biphenyl]-3-yl) methanone hydrochloride] | 35 ± 9.6
O=C(c1cc(F)cc(N2CCNCC2=O)c1)N1CCN(C(=O)c2ccc(O[C@H]3CCNC3)c(C3CCC(C(F)(F)F)CC3)c2)CC1 (stereo partly drawn) [Compound 76, (S)-1-(3-Fluoro-5-(4-(4-(pyrrolidin-3-yloxy)-3-(4-(trifluoromethyl)cyclohexyl)benzoyl)piperazine-1-carbonyl)phenyl)piperazin-2-one hydrochloride] | 14 ± 3.6
O=C(c1cc(N2CCNCC2)cc(C(F)(F)F)c1)N1CCN(C(=O)c2ccc(O[C@H]3CCNC3)c(C3CCCCC3)c2)CC1 [Compound 20, (S)-(4-(3-Cyclohexyl-4-(pyrrolidin-3-yloxy)benzoyl)piperazin-1-yl) (3-(piperazin-1-yl)-5-(trifluoromethyl)phenyl) methanone hydrochloride] | 69 ± 8.7
Cl.Cl.O=C(c1cc(F)cc(N2CCNCC2)c1)N1CCN(C(=O)c2ccc(O[C@H]3CCNC3)c(-c3ccc(F)c(F)c3)c2)CC1 [Compound 9, (S)-(4-(3′,4′-Difluoro-6-(pyrrolidin-3-yloxy)-[1,1′-biphenyl]-3-carbonyl)piperazin-1-yl)(3-fluoro-5-(piperazin-1-yl)phenyl) methanone hydrochloride] | 57 ± 33
NCCOc1ccc(C(N)=O)cc1-c1ccc(F)cc1 [Compound 1, 2-((5-carbamoyl-4′-fluoro-[1,1′-biphenyl]-2-yl)oxy)ethan-1-aminium chloride] | 130 ± 6.9
NCCc1cc(F)cc(C(=O)N2CCN(C(=O)c3ccc(O[C@H]4CCNC4)c(-c4ccc(F)cc4)c3)CC2)c1 [Compound 5, (S)-(4-(3-(2-Aminoethyl)-5-fluorobenzoyl)piperazin-1-yl)(4′-fluoro-6-(pyrrolidin-3-yloxy)-[1,1′-biphenyl]-3-yl)methanone hydrochloride] | 67 ± 13
Cc1cc(C(=O)N2CCN(C(=O)c3cc(F)cc(N4CCNCC4)c3)CC2)ccc1O[C@H]1CCNC1 [Compound 17, (S)-(4-(3-Fluoro-5-(piperazin-1-yl)benzoyl)piperazin-1-yl)(3-methyl-4-(pyrrolidin-3-yloxy)phenyl) methanone hydrochloride] | 490 ± 150
Cl.Cl.NCCc1cc(F)cc(C(=O)N2CCN(C(=O)c3cnc(O[C@H]4CCNC4)c(-c4ccc(F)cc4)c3)CC2)c1 [Compound 4, (S)-(4-(3-(2-Aminoethyl)-5-fluorobenzoyl)piperazin-1-yl)(5-(4-fluorophenyl)-6-(pyrrolidin-3-yloxy)pyridin-3-yl)methanone hydrochloride] | > 500

same assay, conditions: wild-type β-catenin/BCL9 PPI, compared with compound 2

Structure (SMILES) | AlphaScreen Ki relative to compound 2 (higher / worse)
Cl.Cl.O=C(c1cc(F)cc(N2CCNCC2)c1)N1CCN(C(=O)c2cnc(O[C@H]3CCNC3)c(-c3ccc(F)cc3)c2)CC1 [Compound 3, (S)-(4-(3-Fluoro-5-(piperazin-1-yl)benzoyl)piperazin-1-yl)(5-(4-fluorophenyl)-6-(pyrrolidin-3-yloxy)pyridin-3-yl)methanone hydrochloride] | 4 fold
Cl.Cl.O=C(c1cc(F)cc(N2CCNCC2)c1)N1CCN(C(=O)c2ccc(O[C@H]3CCNC3)c(-c3ccc(F)c(F)c3)c2)CC1 [Compound 9, (S)-(4-(3′,4′-Difluoro-6-(pyrrolidin-3-yloxy)-[1,1′-biphenyl]-3-carbonyl)piperazin-1-yl)(3-fluoro-5-(piperazin-1-yl)phenyl) methanone hydrochloride] | approximately 3 fold
